Source: the NIST ThermoML archive (doi:10.1016/j.jct.2016.01.001)
± gives the expanded uncertainty stated by the source.

Assay: mn = molality of the nth substance listed, in mol/kg
Details: 298.15 K, Ring tensiometer

Compound: CC(C)Cc1ccc(C(C)C(=O)[O-])cc1.[Na+] (stereo not drawn) [sodium ibuprofen] + O
- surface tension liquid-gas (m1 = 0.0022): 62.35 ± 1.2 mN/m
- surface tension liquid-gas (m1 = 0.00438): 60.76 ± 1.2 mN/m
- surface tension liquid-gas (m1 = 0.00873): 58.91 ± 1.2 mN/m
- surface tension liquid-gas (m1 = 0.0216): 54.52 ± 1.2 mN/m
- surface tension liquid-gas (m1 = 0.032): 51.62 ± 1.2 mN/m
- surface tension liquid-gas (m1 = 0.0423): 48.38 ± 1.3 mN/m
- surface tension liquid-gas (m1 = 0.0524): 45.51 ± 1.2 mN/m
- surface tension liquid-gas (m1 = 0.0671): 42.39 ± 1.2 mN/m
- surface tension liquid-gas (m1 = 0.0815): 40.24 ± 1.2 mN/m
- surface tension liquid-gas (m1 = 0.1): 38.27 ± 1.2 mN/m
- surface tension liquid-gas (m1 = 0.118): 36.11 ± 1.2 mN/m
- surface tension liquid-gas (m1 = 0.135): 34.85 ± 1.2 mN/m
- surface tension liquid-gas (m1 = 0.16): 33.01 ± 1.1 mN/m
- surface tension liquid-gas (m1 = 0.183): 32.02 ± 1.1 mN/m
- surface tension liquid-gas (m1 = 0.206): 31.74 ± 1.1 mN/m
- surface tension liquid-gas (m1 = 0.227): 31.72 ± 1.1 mN/m
- surface tension liquid-gas (m1 = 0.247): 31.73 ± 1.1 mN/m
- surface tension liquid-gas (m1 = 0.267): 31.72 ± 1.1 mN/m
